The structures appear in SMILES notation.

The data set is described as follows: gradient 5% acetonitrile 3 min, to 50% in 2 min, to 85% in 15 min, held 3 min, 100 µL/min. The note with it: column: Zorbax Extend-C18 2.1 x 50 mm; eluents: water / acetonitrile, 0.1% formic acid. The gist of the method:
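Retention time was recorded from adduct peaks, which were picked computationally and each inspected manually. Pure standards ran in mixtures of ~100 molecules on HPLC coupled to a quadrupole time-of-flight mass spectrometer, in positive and negative ionization mode, through a Zorbax Extend-C18 column (2.1 × 50 mm, 1.8 μm) at 100 μL/min. Eluents were water and acetonitrile, each with 0.1% formic acid.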
In turn, `CC1CCC2(CC1)N=C(N1CCN(c3ncccn3)CC1)NC(=O)C2C#N` (centres undefined) registered an RP-LC retention time of 649 s.

For `Cc1cc(NC(=O)C(=O)c2ccc[nH]2)ccc1Br`, the RP-LC retention time is 1040 s.

As to `NC(=O)C1CCN(c2oc(-c3ccco3)nc2S(=O)(=O)c2ccccc2)CC1`, the RP-LC retention time was 652 s.

In the case of `CCN1c2cc(Cl)ccc2C(=O)NC12CCN(C(=O)Nc1ccc(C)cc1C)CC2`, the RP-LC retention time was determined as 968 s.

`CCc1ccc(/C=C2/SC(=S)NC2=O)cc1` registered an RP-LC retention time of 1070 s.

Turning to `COc1cccc(-c2nnc(N)o2)c1`, the RP-LC retention time was determined as 674 s.

With `CCCN1C(=O)COc2ccc(-c3noc(COc4ccccc4)n3)cc21`, the RP-LC retention time was 1100 s.

For `COc1ccccc1NC(=O)N1CCC(n2cnc3ccccc3c2=O)CC1`, the RP-LC retention time came out at 736 s.

In turn, `COc1ccc(CN2C(=O)[C@H](OC)[C@@H]2C2=CCN(S(=O)(=O)c3cccs3)CC2)cc1` showed an RP-LC retention time of 872 s.

The compound `COC(=O)c1ccccc1NC(=O)Cn1nc2nc(N3CCCC(C)C3)ccn2c1=O` (centres undefined) showed an RP-LC retention time of 863 s.

The compound `CCOc1cc(C(=O)NC2CCN(c3cc(-c4ccccc4)[nH]n3)C2)cc(OCC)c1OCC` (centres undefined) yielded an RP-LC retention time of 822 s.

`COc1cc(C2CC(=O)N(CC(=O)NCC3CCCO3)c3ccccc3S2)cc(OC)c1OC` (centres undefined) showed an RP-LC retention time of 772 s.

`O=C(CCCn1nnc2ccccc2c1=O)Nc1nc2ccccc2[nH]1`: the RP-LC retention time was found to be 570 s.

`COc1ccc(OC)c(NC(=O)C2(CCO)CCN(c3ncccn3)C2)c1` (centres undefined) displayed an RP-LC retention time of 631 s.

As to `CNC(=O)c1ccc(N2CCCN(Cc3ccccc3C)C2=O)cc1`, the RP-LC retention time turned out to be 700 s.

Regarding `Cc1sc2ccn(Cc3ccc(F)cc3)c(=O)c2c1C(=O)NCC1CC1`, the RP-LC retention time amounted to 858 s.

`O=C(C1CCC(=O)N1S(=O)(=O)c1ccccc1)N1CCN(c2ccccn2)CC1` (centres undefined) yielded an RP-LC retention time of 602 s.

As to `Cc1ccc2nc(N3CCN(Cc4ccccc4)CC3)c(-c3noc(C)n3)cc2c1`, the RP-LC retention time came out at 686 s.

`Cc1noc(C)c1CNC(=O)c1ccc2nc[nH]c2c1` registered an RP-LC retention time of 561 s.

`Cn1nc(-c2nnc(-c3ccc(F)cc3)o2)c2c1CCN(S(=O)(=O)c1cc(F)cc(F)c1)C2` came in with an RP-LC retention time of 922 s.

`Cc1ccccc1OCC(=O)NC[C@@]12CCC[C@H]1N(C)C(=O)CC2` registered an RP-LC retention time of 755 s.

For `COc1cccc(-c2nnc(SCC(=O)NCc3ccco3)n2-c2ccccc2)c1`, the RP-LC retention time came to 739 s.

Consider `Cc1ccc(N2C(=O)CC(N3CCC(C(N)=O)CC3)C2=O)cc1C` (centres undefined), for which the RP-LC retention time came to 607 s.

Turning to `Cc1ccc(C)c(NC(=O)Cn2cnc3c(sc4nc(-c5ccccc5)ccc43)c2=O)c1`, the RP-LC retention time turned out to be 1050 s.

In the case of `Cc1nnc(C(C)C)n1C1CC2CCC(C1)N2CC[C@H](NC(=O)C1CCC(F)(F)CC1)c1ccccc1` (some centres undefined), the RP-LC retention time is 674 s.

For the compound `Cc1cccc(S(=O)(=O)N2CCc3c(c(-c4nnc(-c5ccc(F)cc5)o4)nn3C)C2)c1`, the RP-LC retention time was determined as 955 s.

The compound `COc1ccc(NC(=O)Cc2c(C)nn(-c3nc(-c4ccccc4)cs3)c2C)cc1` came in with an RP-LC retention time of 1110 s.

As for `Cc1ccc(NC(=O)Cn2c(=O)n(-c3ccccc3)c(=O)c3c2cc(C)n3C)cc1Cl`, the RP-LC retention time was found to be 927 s.

`CCN1C(=O)NC(c2ccc(C)cc2C)C2=C1CN(CCC(=O)N1CCCC1)C2=O` (centres undefined) gave an RP-LC retention time of 623 s.

`COc1cc(CN2CCC3(CC2)CC(C)(O)CCO3)cc(OC)c1` (centres undefined) registered an RP-LC retention time of 561 s.

For the compound `Cc1ccc(Sc2nccnc2N2CCCC(C(=O)NCCCc3ccccc3)C2)cc1` (centres undefined), the RP-LC retention time came to 1210 s.

In turn, `CC(NC(=O)c1ccc(F)c(F)c1)C(=O)Nc1nc2ccccc2[nH]1` (centres undefined) showed an RP-LC retention time of 655 s.

Turning to `O=C(Nc1nnc(Cc2cccs2)o1)c1cc2cc([N+](=O)[O-])ccc2s1`, the RP-LC retention time worked out at 858 s.

As for `COc1ccc(-c2noc(C3CC(=O)N(c4cc(C)cc(C)c4)C3)n2)c(OC)c1` (centres undefined), the RP-LC retention time turned out to be 970 s.

With `CC(C)C(=O)n1nc(-c2ccccc2Cl)nc1N`, the RP-LC retention time was determined as 898 s.

`O=C(NCc1ccc(Cl)cc1)c1c(O)c2cccnc2n(-c2ccc(F)cc2)c1=O` gave an RP-LC retention time of 1230 s.

As to `CCN(CC)C(=O)Nc1ccc(C)c(Cl)c1`, the RP-LC retention time was found to be 827 s.

Take `COc1cc(=O)n2c(c1C(=O)Nc1ccc(Br)c(C)c1)CCCC2`: the RP-LC retention time was 833 s.

As to `COCC1CN(C2CCC2)CC12CCN(C(=O)c1ccc(C)s1)CC2` (centres undefined), the RP-LC retention time worked out at 645 s.

Consider `Cn1c(N2CCCC(C(=O)N3CCN(c4ccccn4)CC3)C2)cc(=O)n(C)c1=O` (centres undefined), for which the RP-LC retention time was found to be 578 s.

`COc1ccc(N2CCN(C(c3cccs3)C(C)NC(=O)C(=O)N3CCCC3)CC2)cc1` (centres undefined): the RP-LC retention time was 670 s.

Take `O=C(CSc1nc2ncccc2[nH]1)Nc1ccc(Br)cc1F`: the RP-LC retention time came to 720 s.

In the case of `NS(=O)(=O)c1cccnc1Nc1ccc(F)c(Cl)c1`, the RP-LC retention time worked out at 879 s.

With `O=C(CCC1CCCC1)Nc1c2c(nn1-c1cccc(Cl)c1)CS(=O)C2` (centres undefined), the RP-LC retention time was found to be 746 s.

`CCN1C(=O)CN(C(=O)CC(C)C)CC12CCOCC2` yielded an RP-LC retention time of 634 s.

In the case of `Cn1cc(-c2nc(C(=O)Nc3ccc(Cl)cc3F)cs2)c2cccnc21`, the RP-LC retention time turned out to be 1260 s.

For the compound `COc1ccc(C2C(C(=O)N3CCCCC3)=C(C)NC3=C2C(=O)CC(C)(C)C3)cc1OC` (centres undefined), the RP-LC retention time turned out to be 675 s.

The compound `CCOC(=O)NCCS(=O)(=O)N1CCN(c2ccc(OC)cc2)CC1` gave an RP-LC retention time of 695 s.

Turning to `O=C(CCc1cc2ccccc2[nH]c1=O)NCCN1CCCCCC1`, the RP-LC retention time is 595 s.

In turn, `Cc1ccc(N2CN(Cc3ccccc3)S(=O)(=O)c3cccnc32)cc1` yielded an RP-LC retention time of 1130 s.

`COc1ccc(N2CCN(c3cc(SCC(=O)Nc4ccc(C)c(F)c4)ncn3)CC2)cc1`: the RP-LC retention time came out at 1030 s.

As to `O=C(NC1CCCCCC1)C1CCN(C(=O)c2ncn3c2COC(c2ccc(F)cc2)C3)CC1` (centres undefined), the RP-LC retention time was determined as 846 s.

In turn, `CCN1CCCn2cc(S(=O)(=O)N3CCN(c4ccccn4)CC3)cc2C1=O` yielded an RP-LC retention time of 577 s.

As to `COc1ccc(Cl)cc1NC(=O)NCCc1cn(C)c2ncccc12`, the RP-LC retention time was determined as 756 s.

Take `Cc1csc(-c2cc(S(=O)(=O)N3CCOCC3)cn2CC(=O)N2CCCC2)n1`: the RP-LC retention time came out at 770 s.

For `Cc1ccc(N2CN(CC(=O)Nc3ccccc3C)S(=O)(=O)c3cccnc32)cc1`, the RP-LC retention time came out at 813 s.

Take `Cn1cnc(S(=O)(=O)N2CCCCC2c2nc(-c3cccnc3)n[nH]2)c1` (centres undefined): the RP-LC retention time came out at 594 s.

Turning to `CN(C)C(=O)c1n[nH]c2c1CN(C(=O)c1cccc(C(F)(F)F)c1)CC2`, the RP-LC retention time was found to be 673 s.

Regarding `NC(=O)Cn1cnc2nc(N3CCC(C(=O)NC4CC4)CC3)sc2c1=O`, the RP-LC retention time was 566 s.

Source of the values: the METLIN SMRT retention time set (Domingo-Almenara et al. 2019).
